Results on four molecules are retold here after patent US6005007A, “Retinoids, methods for their production and use” (priority 1997, dated 1999).

The target in assay [1] is T1, RARγ (Homo sapiens, UniProt P13631).
T1 sequence (P13631 1-454): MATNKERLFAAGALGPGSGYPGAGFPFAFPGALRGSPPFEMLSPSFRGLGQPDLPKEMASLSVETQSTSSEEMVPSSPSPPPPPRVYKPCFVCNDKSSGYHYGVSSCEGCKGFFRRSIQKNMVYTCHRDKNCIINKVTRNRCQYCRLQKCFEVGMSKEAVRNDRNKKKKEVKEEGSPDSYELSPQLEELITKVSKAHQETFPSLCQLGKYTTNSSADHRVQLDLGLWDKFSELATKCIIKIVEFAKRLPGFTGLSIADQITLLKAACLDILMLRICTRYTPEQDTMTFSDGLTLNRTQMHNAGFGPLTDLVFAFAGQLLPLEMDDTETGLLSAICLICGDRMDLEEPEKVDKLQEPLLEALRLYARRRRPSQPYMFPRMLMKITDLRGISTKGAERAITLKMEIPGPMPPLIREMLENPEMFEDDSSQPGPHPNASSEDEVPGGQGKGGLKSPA
The assay can be described thus: Receptor binding, RARγ. The conditions noted are these: tritiated retinoid competition.

Assay [2] concerns the target T2, RARα (Homo sapiens, UniProt P10276).
T2 sequence (P10276 1-462): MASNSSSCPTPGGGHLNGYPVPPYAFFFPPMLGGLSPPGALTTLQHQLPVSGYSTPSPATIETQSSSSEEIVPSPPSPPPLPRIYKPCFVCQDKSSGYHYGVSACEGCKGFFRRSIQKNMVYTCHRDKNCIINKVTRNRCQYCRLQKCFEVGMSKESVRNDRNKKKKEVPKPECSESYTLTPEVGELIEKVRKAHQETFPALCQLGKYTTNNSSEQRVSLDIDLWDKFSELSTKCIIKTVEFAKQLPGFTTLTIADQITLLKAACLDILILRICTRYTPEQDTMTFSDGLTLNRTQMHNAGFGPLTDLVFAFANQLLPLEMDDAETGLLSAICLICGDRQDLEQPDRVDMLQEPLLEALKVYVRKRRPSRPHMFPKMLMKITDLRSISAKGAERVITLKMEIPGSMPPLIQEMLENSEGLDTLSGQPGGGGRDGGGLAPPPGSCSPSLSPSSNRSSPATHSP
Description: Receptor binding, RARα. The conditions noted are these: tritiated retinoid competition.

Assay [3] deals with T3, RARβ (Homo sapiens, UniProt P10826).
T3 sequence (P10826 1-448 isoform P10826-2): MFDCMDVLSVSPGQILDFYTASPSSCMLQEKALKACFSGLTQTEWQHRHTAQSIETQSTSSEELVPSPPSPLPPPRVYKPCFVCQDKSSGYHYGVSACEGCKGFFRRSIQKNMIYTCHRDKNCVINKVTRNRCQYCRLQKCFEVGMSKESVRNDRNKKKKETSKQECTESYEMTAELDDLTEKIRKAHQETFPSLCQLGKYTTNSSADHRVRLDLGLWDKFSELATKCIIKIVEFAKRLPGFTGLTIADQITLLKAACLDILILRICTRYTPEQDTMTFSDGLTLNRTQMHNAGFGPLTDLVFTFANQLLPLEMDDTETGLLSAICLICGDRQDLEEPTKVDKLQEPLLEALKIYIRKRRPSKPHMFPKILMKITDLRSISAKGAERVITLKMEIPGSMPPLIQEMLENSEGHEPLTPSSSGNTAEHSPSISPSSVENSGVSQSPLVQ
The assay can be described thus: Receptor binding, RARβ. The conditions noted are these: tritiated retinoid competition.

For a further assay, the system named is ME 180. The assay can be described thus: Incorporation of 3H-thymidine, ME 180. Type of assay: cell-based. Particulars: Homo sapiens.
A further assay concerns AML-193. Description: Incorporation of 3H-thymidine, AML-193. Particulars: Homo sapiens, read-out: TdR IC50 AML-193 (nM).
The subject of the next assay is RPMI 8226. The assay can be described thus: Incorporation of 3H-thymidine, RPMI 8226. Type of assay: cell-based. Particulars: Homo sapiens, 96 hours incubation, then 6 hours 3H-thymidine, read-out: TdR IC50 RPMI 8226.
The target in assay [4] is T3, RARβ. The assay can be described thus: Co-transfection assay, RARβ agonist activity. The class given is cell-based. On the set-up: expressed in transfected cells; host or cells: CV-1 (African green monkey kidney fibroblasts). The conditions noted are these: CV-1 cells, luciferase reporter, read-out: RARβ Pot. (A reporter such as luciferase makes a cellular process visible.)

Assay [5] addresses T2, RARα. Description: Co-transfection assay, RARα agonist activity. Particulars: CV-1 cells, luciferase reporter, read-out: RARα Pot. On the set-up: expressed in transfected cells; host or cells: CV-1 (African green monkey kidney fibroblasts). Type of assay: cell-based.
Assay [6] addresses T1, RARγ. Description: Co-transfection assay, RARγ agonist activity. The class given is cell-based. Further details: expressed in transfected cells; host or cells: CV-1 (African green monkey kidney fibroblasts). Particulars: CV-1 cells, luciferase reporter, read-out: RARγ Pot.
The target of the next assay is T4, RXRγ (Mus musculus, UniProt P28705).
T4 construct: expressed in transfected cells; host or cells: CV-1 (African green monkey kidney fibroblasts)
T4 sequence (P28705 1-463): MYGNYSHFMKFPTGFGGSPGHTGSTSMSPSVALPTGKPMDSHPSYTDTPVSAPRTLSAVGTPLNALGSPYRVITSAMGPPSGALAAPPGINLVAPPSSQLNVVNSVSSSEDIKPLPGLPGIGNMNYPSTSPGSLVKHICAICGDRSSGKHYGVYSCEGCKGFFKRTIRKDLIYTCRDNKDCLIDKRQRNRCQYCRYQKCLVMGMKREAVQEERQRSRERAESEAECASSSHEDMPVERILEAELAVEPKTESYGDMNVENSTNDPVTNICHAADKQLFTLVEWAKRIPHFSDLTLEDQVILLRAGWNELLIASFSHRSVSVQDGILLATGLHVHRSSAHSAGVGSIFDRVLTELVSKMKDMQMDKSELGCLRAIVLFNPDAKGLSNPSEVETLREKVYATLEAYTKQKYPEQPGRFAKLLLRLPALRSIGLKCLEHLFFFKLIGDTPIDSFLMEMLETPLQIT
Description: Receptor binding, RXRγ. Particulars: tritiated retinoid competition.

Molecules are shown by their SMILES. Read-outs that look alike come from different tables or passages of the source.

`CC(/C=C/CC1(c2cc(C(C)(C)C)cc(C(C)(C)C)c2)CC1)=C\C(=O)O` [Compound 105, (2E, 4E)-6-[(3,5-di-t-butylphenyl)cyclopropan-1-yl]-3-methyl hexadienoic acid]: the Kd on RARγ [1], on RARα [2] and on RARβ [3] was over 5000 nM in each case.
Turning to `CC1=C(/C=C/C(C)=C\C=C\C(C)=C\C(=O)O)C(C)(C)CCC1` [Compound 9-cis, 9-cis retinoic acid], the IC50 in the assay on ME 180 (ME-180, read-out: TdR IC50 ME 180 (nM)) came to 180 nM; in the assay with AML-193 it was 113 nM.
As for `C/C(=C\c1ccc(C(=O)O)cc1)c1ccc2c(c1)C(C)(C)CCC2(C)C` [TTNPB], the IC50 with ME 180 (ME-180, 96 hours incubation, then 6 hours 3H-thymidine, read-out: TdR IC50 ME 180) was found to be 0.4 nM; in the assay with AML-193, 0.1 nM; in the assay with RPMI 8226, 0.2 nM.
Turning to `CC(/C=C/CC1(c2cc3c(cc2C)C(C)(C)CCC3(C)C)CC1)=C\C(=O)O` [Compound 102, (2E, 4E)-6-[(3,5,5,8,8-Pentamethyl-5,6,7,8-tetrahydronaphthalen-2-yl)cyclopropan-1-yl]-3-methyl hexadienoic acid], the EC50 at RARβ [4], at RARα [5] and on RARγ [6] was over 10000 nM in each case. The Kd is over 5000 nM at RARγ [1], over 5000 nM on RARα [2], over 5000 nM at RARβ [3] and 153 nM at RXRγ.

Broadly, the Kd is the concentration at which binding is half-saturated. By IC50 is commonly meant the concentration at which inhibition is half-maximal.
